Assays:
[1] = test system: Adriamycin resistant strain 2780 AD cells of human ovarian cancer A2780 cells; assay: Potentiating effect on incorporation of 3H-vincristine into adriamycin-resistant cancer cells; assay type: cell-based; details: 20 nM 3H-vincristine; for activity at 1 µg/mL / activity at 10 µg/mL: Homo sapiens, 2780AD, 2 h, control = 100, read-out: 3H-vincristine accumulation; for activity at 10 µg/mL: compound 10 μg/ml
Procedure: Potentiating Effect of the Compounds on Incorporation of Anticancer Drugs into Drug-resistant Cancer Cells
Adriamycin resistant strain 2780 AD cells of human ovarian cancer A2780 cells (A. M. Rogan et al., Science 224, 994-996, 1984) were suspended at a concentration of 1×10^6 /ml in RPMI-1640 medium supplemented with 5% fetal calf serum, and 1 ml of the cancer cell suspension was dispensed into each well of a multi-well culture plate (24 wells, […] in diameter) and then incubated at 37° C. in an atmosphere of 5% CO2. After 24 hours incubation, the medium in each well was replaced by 0.5 ml of RPMI-1640 medium supplemented containing 20 nM ^3 H-vincristine (1×10^4 dpm/pmol), 5% fetal calf serum and 10 mM Hepes buffer. Five microliters of a solution of the compound to be tested, which had been dissolved in DMSO and diluted with […] (at a concentration of 1.0 microgram/ml or 10.0 micrograms/ml), was added to each well and the incubation was continued at 37° C. in 5% CO2 for 2 hours. The resultant cells were washed in cold saline-phosphate buffer. In each well was added 0.5 ml of 0.2N NaOH, and the resulting cell suspension in each well was independently transferred into a vial and then heated in a water bath at 56° C. for 30-60 minutes to dissolve the cells. After adding 4 ml of acid aquazole 2, the amount of ^3 H-vincristine incorporated into the cells was determined by a fluid scintillation counter.

[2] = test system: Vincristine-resistant strain P388/VCR cells of mouse leukemia P388 cells; assay: Potentiating effect on vincristine in mice having vincristine-resistant mouse leukemia (survival); assay type: in vivo, mouse (female CDFI mice); details: compound 30 mg/kg + vincristine 100 ug/kg, peritoneal, once a day for 5 days; for T/C (rate of life prolongation): control = 100

| Structure (SMILES) | activity at 1 µg/mL ([1]; compound 1 μg/ml) | activity at 10 µg/mL [1] | Average surviving period [2] | T/C (rate of life prolongation) [2] | 3H-vincristine accumulation ([1]; compound 1 μg/ml, 2 hours, control = 100, 120 min) |
| --- | --- | --- | --- | --- | --- |
| CN(CCN(C)C(c1ccccc1)c1ccccc1)CC(O)COc1cccc2ncccc12 (stereo not drawn) [Example 3, 5-(3-[N-(2-(N-Diphenylmethyl-N-methylamino)ethyl)-N-methylamino]-2-hydroxypropoxy)quinoline] | 731% | 774% | 11.0 ± 0.6 days | 100% |  |
| OC(COc1cccc2ncccc12)CN1CCCN(C(c2ccccc2)c2ccccc2)CC1 (stereo not drawn) [Example 4, 5-[3-(4-Diphenylmethylhomopiperazine-1-yl)-2-hydroxypropoxy]quinoline] | 438% | 770% | 11.8 ± 0.4 days | 107% |  |
| Cc1cc(C)c2c(OCC(O)CN3CCN(C(c4ccccc4)c4ccccc4)CC3)cccc2n1 (stereo not drawn) [Example 5, 2,4-Dimethyl-5-[3-(4-diphenylmethylpiperazine-1-yl)-2-hydroxypropoxy]quinoline] | 732% |  | 12.8 ± 0.8 days | 124% |  |
| OC(COc1cccc2ncccc12)CN1CCN(C2c3ccccc3COc3ccccc32)CC1 (stereo not drawn) [Example 6, 5-[3-(4-(6,11-Dihydrodibenzo[b,e]oxepine-11-yl)piperazine-1-yl)-2-hydroxypropoxy]quinoline] |  |  | 13.4 ± 0.7 days | 128% |  |
| OC(COc1cccc2ncccc12)CN1CCC(C(O)(c2ccccc2)c2ccccc2)CC1 (stereo not drawn) [Example 7, 5-[3-(4-(Diphenyl-hydroxymethyl)piperidine-1-yl)-2-hydroxypropoxy]quinoline] | 972% |  | 12.9 ± 0.5 days | 123% |  |
| COc1ccc2c(OCC(O)CN3CCN(C(=O)C(c4ccccc4)c4ccccc4)CC3)cccc2n1 (stereo not drawn) [Example 8, 5-[3-(4-(2,2-Diphenylacetyl)piperazine-1-yl) -2-hydroxypropoxy]-2-methoxyquinoline] | 394% | 863% | 12.2 ± 0.6 days | 115% |  |
| COc1ccc2c(OCC(O)CN3CCN(C4c5ccccc5CCc5ccccc54)CC3)cccc2n1 (stereo not drawn) [Example 9, 5-[3-(4-(Dibenzosuberane-5-yl)piperazine-1-yl)-2-hydroxypropoxy]-2-methoxyquinoline] | 721% | 947% | 14.2 ± 0.6 days | 134% |  |
| CCN(CCN(CC)C(c1ccccc1)c1ccccc1)CC(O)COc1cccc2ncccc12 (stereo not drawn) [Example 10, 5-(3-[N-(2-(N-Diphenylmethyl-N-ethylamino)ethyl)-N-ethylamino]-2-hydroxypropoxy)quinoline] | 642% | 932% | 12.3 ± 1.4 days | 112% |  |
| COc1ccc(C(c2cccc(OC)c2OC)N2CCN(CC(O)COc3cccc4ncccc34)CC2)cc1OC (stereo not drawn) [Example 11, 5-[3-(4-(2,3,3',4'-Tetramethoxydiphenylmethyl)piperazine-1-yl)-2-hydroxypropoxy]quinoline] | 735% |  | 12.1 ± 0.5 days | 115% |  |
| CCc1cnc2cccc(OCC(O)CN3CCN(C(c4ccccc4)c4ccccc4)CC3)c2c1 (stereo not drawn) [Example 12, 3-Ethyl-5-[3-(4-diphenylmethylpiperazine-1-yl)-2-hydroxypropoxy]quinoline] | 568% | 831% | 12.5 ± 0.5 days | 114% |  |
| OC(COc1cccc2ncccc12)CN1CCC(=C(c2ccccc2)c2ccccc2)CC1 (stereo not drawn) [Example 13, 5-[3-(4-(Diphenylmethylene)piperidine-1-yl)-2-hydroxypropoxy]quinoline] | 517% | 805% | 15.3 ± 0.5 days | 139% |  |
| OC(COc1cccc2ncccc12)CN1CCN(C(c2ccccc2)c2ccccn2)CC1 (stereo not drawn) [Example 15, 5-[2-Hydroxy-3-(4-(phenyl-2-pyridylmethyl)piperazine-1-yl)propoxy]quinoline] | 840% |  | 12.3 ± 0.4 days | 117% |  |
| O=C(C(c1ccccc1)c1ccccc1)N1CCN(CC(O)COc2cccc3ncccc23)CC1 (stereo not drawn) [Example 16, 5-[3-(4-(2,2-Diphenylacetyl)piperazine-1-yl)-2-hydroxypropoxy]quinoline] | 850% | 982% | 13.9 ± 1.4 days | 132% |  |
| OC(COc1cccc2ncccc12)CN1CCN(CC(c2ccccc2)c2ccccc2)CC1 (stereo not drawn) [Example 17, 5-[3-(4-(2,2-Diphenylethyl)piperazine-1-yl)-2-hydroxypropoxy]quinoline] | 730% |  | 11.8 ± 1.1 days | 115% |  |
| OC(CNc1cccc2ncccc12)CN1CCN(C(c2ccccc2)c2ccccc2)CC1 (stereo not drawn) [Example 27, 5-[3-(4-Diphenylmethylpiperazine-1-yl)-2-hydroxypropylamino]quinoline] |  |  | 12.3 ± 0.3 days | 119% |  |
| CSc1ccc2c(OCC(O)CN3CCN(C(=O)C(c4ccccc4)c4ccccc4)CC3)cccc2n1 (stereo not drawn) [Example 65, 2-Methylthio-5-[3-(4-(α,α-diphenylacetyl)piperazine-1-yl)-2-hydroxypnopoxy]quinoline] | 297% | 985% |  |  |  |
| Cc1cc(C)c2c(OCC(O)CN(C)CCN(C)C3c4ccccc4CCc4ccccc43)cccc2n1 (stereo not drawn) [Example 66, 2,4-Dimethyl-5-[3-(N,N'-dimethyl-N'-(dibenzosuberane-5-yl)ethylenediamino)-2-hydroxypropoxy]quinoline] | 488% |  |  |  |  |
| Cc1cc(C)c2c(OCC(O)CN3CCC(=C(c4ccccc4)c4ccccc4)CC3)cccc2n1 (stereo not drawn) [Example 67, 2,4-Dimethyl-5-[3-(4-diphenylmethylenepiperizine-1-yl)-2-hydroxypropoxy]quinoline] | 730% |  |  |  |  |
| CN(CCC=C1c2ccccc2CCc2ccccc21)CC(O)COc1cccc2ncccc12 (stereo not drawn) [Example 68, 5-(3[N-{3-dibenzosuberane-5-ylidene)propy}-N-methylamino-2-hydroxypropoxy)quinoline] | 671% |  |  |  |  |
| OC(CNCCC(c1ccccc1)c1ccccc1)COc1cccc2ncccc12 (stereo not drawn) [Example 69, 5-[3-(3,3-Diphenylpropylamino)-2-hydroxypropoxy]quinoline] | 738% | 941% |  |  |  |
| OC(CNCC(c1ccccc1)c1ccccc1)COc1cccc2ncccc12 (stereo not drawn) [Example 70, 5-[3-(2,2-Diphenylethylamino)-2-hydroxypropoxy]quinoline] | 252% | 960% |  |  |  |
| CS(=O)(=O)c1ccc2c(OCC(O)CN3CCN(C4c5ccccc5CCc5ccccc54)CC3)cccc2n1 (stereo not drawn) [Example 71, 2-Methylsufonyl-5-[3-(4-(dibenzosuberane-5-yl)piperazine-1-yl)-2-hydroxypropoxy]quinoline] | 501% | 921% |  |  |  |
| OC(COc1cccc2ncccc12)CN1CCN(C2c3ccccc3Oc3ccccc32)CC1 (stereo not drawn) [Example 72, 5-[3-(4-(Xanthene-9-yl)piperazine-1-yl)-2-hydroxypropoxy]quinoline] | 112% | 144% |  |  |  |
| OC(CSc1cccc2ncccc12)CN1CCN(C(c2ccccc2)c2ccccc2)CC1 (stereo not drawn) [Example 74, 5-[3-(4-Diphenylmethylpiperazine-1-yl)-2-hydroxypropylthio]qunoline] |  |  |  |  | 626% |
| OC(CSc1cccc2ncccc12)CN1CCN(C2c3ccccc3CCc3ccccc32)CC1 (stereo not drawn) [Example 75, 5-[3-(4-(Dibenzosuberane-5-yl)piperazine-1-yl)-2-hydroxy-propylthio]quinoline] | 587% |  |  |  |  |
| OC(COc1cccc2nc(C(F)(F)F)cc(C(F)(F)F)c12)CN1CCN(C2c3ccccc3CCc3ccccc32)CC1 (stereo not drawn) [Example 76, 5-[3-(4-(Dibenzosuberane-5-yl)piperazine-1-yl)-2-hydroxypropoxy]-2,4-bis(trifluoromethyl)quinoline] | 130% | 304% |  |  |  |
| OC(COc1cccc2ncccc12)CN1CCC(=C2c3ccccc3C=Cc3ccccc32)CC1 (stereo not drawn) [Example 77, 5-[3-(4-(Dibenzosuberene-5-ylidene)piperidine-1-yl)2-hydroxypropoxy]quinoline] |  |  | 13.8 ± 1.2 days | 129% |  |
| OC(COc1cccc2ncccc12)CN1CCC(C2(O)c3ccccc3C=Cc3ccccc32)CC1 (stereo not drawn) [Example 79, 5-[2-Hydroxy-3-(4-(5-hydroxydibenzosuberene-5-yl)piperidine-1-yl)propoxy]quinoline] | 841% | 963% |  |  |  |

— patent publication US5405843A, “Quinoline derivatives” (Mitsui Toatsu Chemicals, Incorporated, priority 1988, dated 1995)
